For this test, the system named is P388 leukemia ip, CD2F1 mice, survival T/C. The test is described as follows: NCI In Vivo Anticancer Drug Screen. Data for tumor model P388 Leukemia (intraperitoneal) in CD2F1 (CDF1) mice. Conditions: endpoint: median survival time, higher = longer survival. The gist of the method:
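Mice carrying the transplanted tumor received test compound or vehicle. Survival was recorded in each group, and the value is the treated-group measurement divided by that of the vehicle-treated control group.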

Setting [1] is: dose: 50.0 mg/kg/injection, schedule: Q01DX005 (ip), vehicle: saline with Tween-80.
The mark [2] stands for this setting: dose: 50.0 mg/kg/injection, schedule: Q01DX009 (ip), vehicle: saline with Tween-80.
The mark [3] stands for this setting: dose: 100.0 mg/kg/injection, schedule: Q01DX009 (ip), vehicle: saline with Tween-80.
[4] abbreviates: dose: 200.0 mg/kg/injection, schedule: Q01DX009 (ip), vehicle: saline with Tween-80.
[5] abbreviates: dose: 120.0 mg/kg/injection, schedule: Q01DX005 (ip), vehicle: saline with Tween-80.
The mark [6] stands for this setting: dose: 240.0 mg/kg/injection, schedule: Q01DX005 (ip), vehicle: saline with Tween-80.
Setting [7] is: dose: 100.0 mg/kg/injection, schedule: Q04DX003 (ip), vehicle: saline with Tween-80.
Where [8] appears, read: dose: 200.0 mg/kg/injection, schedule: Q04DX003 (ip), vehicle: saline with Tween-80.
Setting [9] is: dose: 400.0 mg/kg/injection, schedule: Q04DX003 (ip), vehicle: saline with Tween-80.
Setting [10] is: dose: 100.0 mg/kg/injection, schedule: Q01DX009 (ip), vehicle: Klucel (hydroxypropylcellulose) (HPC).
The mark [11] stands for this setting: dose: 200.0 mg/kg/injection, schedule: Q01DX009 (ip), vehicle: Klucel (hydroxypropylcellulose) (HPC).

“And” between values parts separate entries of the source, which are not always exact repeats. Equal entries are not always repeated. Toxic doses and inconclusive results are not listed.

For `C=Cn1c([N+](=O)[O-])cnc1/C=C/c1ccc(C(=O)OCCN2CCOCC2)cc1`, the T/C by setting is: (dose: 25.0 mg/kg/injection, schedule: Q04DX002 (ip), vehicle: saline with Tween-80) 101 % of control; (dose: 50.0 mg/kg/injection, schedule: Q04DX002 (ip), vehicle: saline with Tween-80) 101 % of control; (dose: 100.0 mg/kg/injection, schedule: Q04DX002 (ip), vehicle: saline with Tween-80) 103 % of control and 90 % of control.

In the case of `c1ccc2c3c(ccc2c1)Oc1ccc2ccccc2c1C3`, the T/C was 102 % of control (dose: 100.0 mg/kg/injection, schedule: Q01DX001 (ip), vehicle: Klucel (hydroxypropylcellulose) (HPC)); 97 % of control (dose: 200.0 mg/kg/injection, schedule: Q01DX001 (ip), vehicle: Klucel (hydroxypropylcellulose) (HPC)); 100 % of control (dose: 400.0 mg/kg/injection, schedule: Q01DX001 (ip), vehicle: Klucel (hydroxypropylcellulose) (HPC)).

In the case of `CCOC(=O)C1=C(C)/C(=C/c2[n-]c(Cl)c(C)c2C(=O)OCC)N=C1C.CCOC(=O)C1=C(C)/C(=C/c2[n-]c(Cl)c(C)c2C(=O)OCC)N=C1C.[Co+3]`, the T/C is, setting by setting: (dose: 50.0 mg/kg/injection, schedule: Q01DX005 (ip), vehicle: Klucel (hydroxypropylcellulose) (HPC)) 88 % of control; (dose: 100.0 mg/kg/injection, schedule: Q01DX005 (ip), vehicle: Klucel (hydroxypropylcellulose) (HPC)) 98 % of control; (dose: 200.0 mg/kg/injection, schedule: Q01DX005 (ip), vehicle: Klucel (hydroxypropylcellulose) (HPC)) 108 % of control.

Consider `CCC/C=C\C=C\C(=O)OC1C2C=C3CC(C(C)O)OC(=O)CC(O)CC4CC(OC(C)=O)C(C)(C)C(O)(CC5C/C(=C\C(=O)OC)CC(/C=C/C(C)(C)C16OC(=O)C(O)C32O6)O5)O4` (centres undefined), for which the T/C by setting is: (dose: 0.03 mg/kg/injection, schedule: Q01DX009 (ip), vehicle: saline + alcohol) 163 % of control; (dose: 30.0 micrograms/kg/injection, schedule: Q01DX009 (ip), vehicle: saline + alcohol) 153 % of control.

As to `COC(=O)c1c(COC(=O)NC(C)C)c2n(c1C)CS(=O)(=O)C2`, the T/C by setting is: (dose: 12.5 mg/kg/injection, schedule: Q01DX005 (ip), vehicle: saline with Tween-80) 96 % of control; (dose: 25.0 mg/kg/injection, schedule: Q01DX005 (ip), vehicle: saline with Tween-80) 95 % of control; under setting [1], 92 % of control.

Take `Cc1c(COC(=O)NC2CCCCC2)c(COC(=O)NC2CCCCC2)c2n1CCc1ccccc1-2`: the T/C is 178 % of control (dose: 12.5 mg/kg/injection, schedule: Q01DX009 (ip), vehicle: distilled water + Tween-80); 182 % of control (dose: 25.0 mg/kg/injection, schedule: Q01DX009 (ip), vehicle: distilled water + Tween-80); 101 % of control (dose: 50.0 mg/kg/injection, schedule: Q01DX009 (ip), vehicle: distilled water + Tween-80).

In the case of `Cn1c2cc3ccccc3cc2nc2cc3c(cc21)c(Cl)c(=O)c1ccccc13`, the T/C under setting [2] was 109 % of control, the T/C under setting [3] is 99 % of control and the T/C under setting [4] is 100 % of control.

For the compound `O=C(NCCCl)N1CCC(CN=c2cc3n(-c4ccc(Cl)cc4)c4ccccc4nc-3cc2Nc2ccc(Cl)cc2)CC1`, the T/C is 88 % of control (dose: 7.5 mg/kg/injection, schedule: Q01DX005 (ip), vehicle: saline with Tween-80); 88 % of control (dose: 15.0 mg/kg/injection, schedule: Q01DX005 (ip), vehicle: saline with Tween-80); 94 % of control under setting [5]; 97 % of control under setting [6].

Turning to `COc1ccc(C(=O)CC(C(=O)O)c2ccc(OC)cc2)cc1` (centres undefined), the T/C was 102 % of control under setting [7], 94 % of control under setting [8] and 99 % of control under setting [9].

As for `O=C1CN(CCCN2c3ccccc3Sc3ccc(C(F)(F)F)cc32)CC(=O)N1`, the T/C is 103 % of control under setting [1]; 100 % of control (dose: 100.0 mg/kg/injection, schedule: Q01DX005 (ip), vehicle: saline with Tween-80); 104 % of control (dose: 200.0 mg/kg/injection, schedule: Q01DX005 (ip), vehicle: saline with Tween-80).

As for `CCCCCCNCC(=O)OCC`, the T/C by setting is: (dose: 50.0 mg/kg/injection, schedule: Q01DX005 (ip), vehicle: saline) 101 % of control; (dose: 100.0 mg/kg/injection, schedule: Q01DX005 (ip), vehicle: saline) 106 % of control; (dose: 200.0 mg/kg/injection, schedule: Q01DX005 (ip), vehicle: saline) 110 % of control.

`Cc1cccc2c1NC(O)c1cccn1C2=O` (centres undefined): the T/C is, setting by setting: (dose: 0.1 mg/kg/injection, schedule: Q01DX005 (ip), vehicle: water) 98 % of control; (dose: 0.2 mg/kg/injection, schedule: Q01DX005 (ip), vehicle: water) 93 % of control; (dose: 0.4 mg/kg/injection, schedule: Q01DX005 (ip), vehicle: water) 93 % of control; (dose: 0.8 mg/kg/injection, schedule: Q01DX005 (ip), vehicle: water) 98 % of control; (dose: 1.6 mg/kg/injection, schedule: Q01DX005 (ip), vehicle: water) 93 % of control; (dose: 5.0 mg/kg/injection, schedule: Q01DX005 (ip), vehicle: distilled water + Tween-80) 103 % of control. Moreover, the T/C (dose: 10.0 mg/kg/injection, schedule: Q01DX005 (ip), vehicle: distilled water + Tween-80) was 94 % of control; the T/C (dose: 20.0 mg/kg/injection, schedule: Q01DX005 (ip), vehicle: distilled water + Tween-80) was 98 % of control; the T/C (dose: 40.0 mg/kg/injection, schedule: Q01DX005 (ip), vehicle: distilled water + Tween-80) was 95 % of control; the T/C (dose: 80.0 mg/kg/injection, schedule: Q01DX005 (ip), vehicle: distilled water + Tween-80) is 94 % of control.

Take `N#CC(Cc1ccccc1)(c1ccccc1)c1ccccc1`: the T/C is, setting by setting: (dose: 50.0 mg/kg/injection, schedule: Q01DX009 (ip), vehicle: Klucel (hydroxypropylcellulose) (HPC)) 101 % of control; under setting [10], 96 % of control; under setting [11], 93 % of control; (dose: 400.0 mg/kg/injection, schedule: Q01DX009 (ip), vehicle: Klucel (hydroxypropylcellulose) (HPC)) 93 % of control.

On to `C=C(C)[C@@H](/C=C/[C@@H](C)[C@H]1CC[C@H]2C3=CC[C@H]4C[C@@H](O)CC[C@]4(C)[C@H]3CC[C@]12C)CC`, for which the T/C reads like this: under setting [2], 90 % of control; (dose: 50.0 mg/kg/injection, schedule: Q04DX003 (ip), vehicle: saline with Tween-80) 95 % of control; under setting [3], 90 % of control; under setting [7], 90 % of control; under setting [4], 100 % of control; under setting [8], 95 % of control.

`CC(C)Oc1ccc(C(=O)NS(=O)(=O)c2ccc(N=CC3C(=O)N(c4ccccc4)N(c4ccccc4)C3=O)cc2)cc1`: the T/C is 92 % of control under setting [10] and 86 % of control under setting [11].

`COc1cccc2c1C(=O)c1c(O)c3c(c(O)c1C2=O)C[C@@](O)(C(C)=O)C[C@@H]3OC1CC(NC(C)=O)C(O)C(C)O1` (some centres undefined): the T/C is 113 % of control (dose: 2.0 mg/kg/injection, schedule: Q01DX009 (ip), vehicle: saline); 157 % of control (dose: 3.13 mg/kg/injection, schedule: Q01DX009 (ip), vehicle: saline); 109 % of control (dose: 6.25 mg/kg/injection, schedule: Q01DX009 (ip), vehicle: saline); 166 % of control (dose: 12.5 mg/kg/injection, schedule: Q01DX009 (ip), vehicle: saline).

Take `Clc1ccccc1N=NN1CCN(c2ccccc2)CC1`: the T/C is, setting by setting: under setting [2], 88 % of control; under setting [3], 102 % of control; under setting [4], 93 % of control.

Regarding `COC(=O)/C=C/N(Cc1ccccc1)Cc1ccccc1`, the T/C runs as follows: under setting [3], 100 % of control; under setting [7], 95 % of control; under setting [4], 100 % of control; under setting [8], 95 % of control; (dose: 400.0 mg/kg/injection, schedule: Q01DX009 (ip), vehicle: saline with Tween-80) 100 % of control; under setting [9], 95 % of control.

Regarding `COC1=NC2(C)C(C)=C(c3ccccc3)C1(C)c1ccccc12` (centres undefined), the T/C reads like this: (dose: 60.0 mg/kg/injection, schedule: Q01DX005 (ip), vehicle: saline with Tween-80) 100 % of control; under setting [5], 98 % of control; under setting [6], 99 % of control.

Consider `O=C(O)C(Cc1ccc(N(CCCl)CCCl)cc1)C(=O)O`, for which the T/C is, setting by setting: (dose: 12.5 mg/kg/injection, schedule: Q01DX009 (ip), vehicle: saline with Tween-80) 161 % of control; (dose: 25.0 mg/kg/injection, schedule: Q01DX009 (ip), vehicle: saline with Tween-80) 171 % of control; under setting [2], 189 % of control and 213 % of control.

These data come from PubChem BioAssay AID330 (DTP/NCI, 2004).
